Data set [1] can be described thus: logP determination by HPLC (reversed-phase C18, EEC Directive 79/831 Annex V.A8). The format is physicochemical. The procedure: The logP values stated in the above tables and Preparation Examples are determined in accordance with EEC Directive 79/831 Annex V.A8 by HPLC (High Performance Liquid Chromatography) using a reversed-phase column (C 18). Temperature: 43° C.
In the acidic range at pH 2.3 the determination takes place using 0.1% aqueous phosphoric acid and acetonitrile as the mobile phases; linear gradient from 10% acetonitrile to 90% acetonitrile. Corresponding results are marked in the tables by “a)”
In the neutral range at pH 7.5 the determination takes place using 0.01 molar aqueous phosphate buffer solution and acetonitrile as the mobile phases; linear gradient from 10% acetonitrile to 90% acetonitrile. Corresponding results are marked in the tables by “b)”
Calibration is carried out using unbranched alkan-2-ones (having 3 to 16 carbon atoms), with known logP values (the logP values determined on the basis of the retention times using linear interpolation between two successive alkanones).

Data set [2] deals with army worm (Spodoptera frugiperda) caterpillars. Nature of the data set: Spodoptera frugiperda test. Type of data set: in vivo. Conditions: in Brassica oleracea, 168 h.
Data set [3] has as its system larvae of the mustard beetle (Phaedon cochleariae). Nature of the data set: Phaedon larvae test. To be noted: in Brassica oleracea, 168 h.
Where [4] appears, read: reversed-phase C18 HPLC column; HPLC, acidic range pH 2.3, 0.1% aqueous phosphoric acid/acetonitrile; marked a), read-out: log P (pH 2.3).
[5] abbreviates: reversed-phase C18 HPLC column; HPLC, neutral range pH 7.5, 0.01 molar phosphate buffer/acetonitrile; marked b), read-out: log P (pH 7.5).
Setting [6] is: 100 ppm, cabbage leaves dipped, read-out: Kill rate in % after 7 d.
Where [7] appears, read: read-out: Kill rate in % after 7 d, 100 ppm, cabbage leaves dipped, Phaedon cochleariae larvae.
[8] abbreviates: HPLC, acidic range pH 2.3, 0.1% aqueous phosphoric acid/acetonitrile; marked a), read-out: log P (pH 2.3).
[9] abbreviates: HPLC, neutral range pH 7.5, 0.01 molar phosphate buffer/acetonitrile; marked b), read-out: log P (pH 7.5).
The mark [10] stands for this setting: read-out: Kill rate in % after 7 d, 100 ppm, cabbage leaves dipped, Spodoptera frugiperda.

Here are results for 17 molecules from patent US7074785B2, “Δ1-pyrrolines used as pesticides” (Bayer Cropscience AG, priority 2001, dated 2006).

Like-named read-outs stand apart in the source and are kept apart here. Where only a bound is given, the exact number is not on record here.

`O=C(Nc1ccc(-c2ccc(C3CCC(c4c(F)cccc4F)=N3)cc2)cc1)N1CCOCC1` (centres unmarked) [Compound 5, N-{4′-[5-(2,6-difluorophenyl)-3,4-dihydro-2H-pyrrol-2-yl]-1,1 ′-biphenyl-4-yl}-4-morpholinecarboxamide]: the chromatographic logP in data set [1] (setting [4]) worked out at 1.87; in data set [1] (setting [5]), 2.96. For the same molecule, the pest or weed control at 100 ppm in data set [2] (setting [6]) was not below 95%.

In the case of `O=C(Nc1ccc(-c2ccc(C3CCC(c4c(F)cccc4F)=N3)cc2)cc1)OC1CCCCC1` (centres unmarked) [Compound 10], the pest or weed control at 100 ppm in data set [3] (setting [7]) is 100%; in data set [2] (setting [10]), not below 95%. Moreover, the results for the chromatographic logP in data set [1] (setting [8]) and in data set [1] (setting [9]) were 3.88 and 1.68, respectively.

Regarding `CCCCOC(=O)N(C)c1ccc(-c2ccc(C3CCC(c4c(F)cccc4F)=N3)cc2)cc1` (centres unmarked) [Compound 3, n-butyl 4′-[5-(2,6-difluorophenyl)-3,4-dihydro-2H-pyrrol-2-yl]-1,1′-biphenyl-4-yl(methyl)carbamate], the chromatographic logP in data set [1] (setting [8]) was 3.76; in data set [1] (setting [9]), 4.92.

Take `CC(C)CCOC(=O)Nc1ccc(-c2ccc(C3CCC(c4c(F)cccc4F)=N3)cc2)cc1` (centres unmarked) [Compound 21]: the results for the pest or weed control at 100 ppm in data set [3] (setting [7]) and in data set [2] (setting [10]) were not below 85% and not below 95%, respectively. In addition, the chromatographic logP in data set [1] (setting [8]) was 3.72.

As for `Nc1ccc(-c2ccc(C3CCC(c4c(F)cccc4F)=N3)cc2)cc1` (centres unmarked) [VII-1, 4′-[5-(2,6-difluorophenyl)-3,4-dihydro-2H-pyrrol-2-yl]-1 ′-biphenyl-4-amine], the chromatographic logP in data set [1] (setting [4]) amounted to 1.25.

In the case of `O=C1OCCN1c1ccc(Br)cc1` [III-4, 3-(4-bromophenyl)-1,3-oxazolidin-2-one], in data set [1] (setting [4]), the chromatographic logP was found to be 2.02.

Turning to `CCCCOC(=O)Nc1ccc(-c2ccc(C3CCC(c4c(F)cccc4F)=N3)cc2)cc1` (centres unmarked) [Compound 9], the pest or weed control at 100 ppm in data set [3] (setting [7]) was 100%; in data set [2] (setting [10]), not below 95%. Also, the chromatographic logP in data set [1] (setting [8]) was 3.44; in data set [1] (setting [9]), 4.6.

Turning to `CCOC(=O)N(C)c1ccc(-c2ccc(C3CCC(c4c(F)cccc4F)=N3)cc2)cc1` (centres unmarked) [Compound 37], the pest or weed control at 100 ppm in data set [3] (setting [7]) was not below 85%; in data set [2] (setting [10]), not below 95%. The chromatographic logP was determined as 2.92 in data set [1] (setting [8]) and 4.16 in data set [1] (setting [9]).

Consider `CCCCN(CC)C(=O)Nc1ccc(-c2ccc(C3CCC(c4c(F)cccc4F)=N3)cc2)cc1` (centres unmarked) [Compound 14], for which the chromatographic logP in data set [1] (setting [4]) is 3.18; in data set [1] (setting [5]) it was 4.36. The pest or weed control at 100 ppm in data set [2] (setting [6]) was not below 95%.

For the molecule `CCCCCOC(=O)Nc1ccc(-c2ccc(C3CCC(c4c(F)cccc4F)=N3)cc2)cc1` (centres unmarked) [Compound 18], the pest or weed control at 100 ppm is not below 85% in data set [3] (setting [7]) and not below 95% in data set [2] (setting [10]). For the same molecule, the chromatographic logP was 3.87 in data set [1] (setting [8]) and 4.89 in data set [1] (setting [9]).

With `O=C(Nc1ccc(-c2ccc(C3CCC(c4c(F)cccc4F)=N3)cc2)cc1)N1CCCC1` (centres unmarked) [Compound 11], the pest or weed control at 100 ppm in data set [3] (read-out: Kill rate in % after 7 d) amounted to 100%. Further, the chromatographic logP in data set [1] (setting [4]) turned out to be 2.11.

On to `COC(=O)Nc1ccc(Br)cc1` [III-1, methyl 4-bromophenylcarbamate], for which the chromatographic logP in data set [1] (setting [8]) was 2.27.

Regarding `COCCOC(=O)Nc1ccc(-c2ccc(C3CCC(c4c(F)cccc4F)=N3)cc2)cc1` (centres unmarked) [Compound 31], the values for the chromatographic logP in data set [1] (setting [8]) and in data set [1] (setting [9]) were 2.24 and 3.45, respectively. In addition, the pest or weed control at 100 ppm in data set [2] (setting [10]) was not below 95%.

On to `CCCOC(=O)Nc1ccc(Br)cc1` [III-2, n-propyl 4-bromophenylcarbamate], for which the chromatographic logP in data set [1] (setting [8]) stood at 3.12.

For the molecule `CCCCOC(=O)N(C)c1ccc(Br)cc1` [III-3, n-butyl-4-bromophenyl(methyl)carbamate], the chromatographic logP in data set [1] (setting [8]) stood at 3.88.

`O=C(Nc1ccc(Br)cc1)N1CCOCC1` [III-5, N-(4-bromophenyl)-4-morpholinecarboxamide]: the chromatographic logP in data set [1] (setting [4]) was found to be 1.75.

`CC(C)C(C)OC(=O)Nc1ccc(-c2ccc(C3CCC(c4c(F)cccc4F)=N3)cc2)cc1` (centres unmarked) [Compound 16]: the pest or weed control at 100 ppm in data set [3] (setting [7]) is not below 85%. The chromatographic logP stood at 3.82 in data set [1] (setting [8]) and 4.77 in data set [1] (setting [9]).
